Laboratory results as given in patent US5244898A, “Benzoheterocyclic compounds” (Otsuka Pharmaceutical Co., Ltd., priority 1991, dated 1993).
Where a name gives a salt, the structure may show the parent alone.

Legend:
V2 Receptor = target: T1, V2 Receptor (Rattus norvegicus, UniProt Q00788); assay: V2 Receptor Binding Assay ([3H]-Arg-vasopressin, rat kidney plasma membrane); settings: 4° C., pH 8.0
T1 construct: rat kidney plasma membrane preparations; from tissue; host or cells: rat kidney plasma membranes
T1 sequence (Q00788 whole entry): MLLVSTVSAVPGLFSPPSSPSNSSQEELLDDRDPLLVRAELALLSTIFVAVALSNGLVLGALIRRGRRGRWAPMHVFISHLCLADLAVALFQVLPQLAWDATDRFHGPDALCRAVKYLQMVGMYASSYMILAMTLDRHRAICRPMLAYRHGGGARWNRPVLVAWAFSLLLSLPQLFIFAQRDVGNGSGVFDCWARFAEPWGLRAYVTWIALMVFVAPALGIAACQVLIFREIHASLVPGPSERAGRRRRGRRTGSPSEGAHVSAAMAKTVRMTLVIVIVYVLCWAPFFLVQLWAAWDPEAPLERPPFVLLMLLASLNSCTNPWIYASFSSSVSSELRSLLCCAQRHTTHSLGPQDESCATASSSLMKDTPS
Protocol: Chem., 253, 3211 (1978)], the plasma membrane (100000 dpm, 4×10^-10M) of [^3 H]-Arg-vasopressin and a test compound (0.6 mg, 10^-10 -10^-5 M) are incubated at 4° C. for 3 hours in 100 mM Tris-HCl buffer pH: 8.0 (250 μl ) containing 5 mM MgCl2, 1 mM EDTA and 0.1 % BSA. After incubation, the mixture is filtered using the glass filter (GF/F) so as to separate the membrane preparation combining with vasopressin and then washed twice with the buffer (5 ml). This glass filter is taken out and mixed with liquid scintillation cocktail. The amount of [^3 H]-vasopressin combining with the membrane is measured by liquid scintillation counter and the rate of the inhibitory effect of the test compound is estimated according to the following equation. [formula]
(§1) C1 : The amount of [^3 H]-vasopressin combining with the membrane in the presence of the test compound of a known amount.
(§2) C0 : The amount of [^3 H]-vasopressin combining with the membrane in the absence of the test compound.
B1 : The amount of [3H-vasopressin combining with the membrane in the presence of the excess amount of vasopressin (10^-6 M).
(§3) The results are expressed as IC50 value, which is the concentration of the test compound required to achieve the inhibitory effect in the rate of 50%.

V1 Receptor = V1 Receptor (Rattus norvegicus, UniProt P30560); assay: V1 Receptor Binding Assay ([3H]-Arg-vasopressin, rat liver plasma membrane); settings: 37° C., 10 minutes, pH 8.0
Chain of V1 Receptor (P30560 whole entry): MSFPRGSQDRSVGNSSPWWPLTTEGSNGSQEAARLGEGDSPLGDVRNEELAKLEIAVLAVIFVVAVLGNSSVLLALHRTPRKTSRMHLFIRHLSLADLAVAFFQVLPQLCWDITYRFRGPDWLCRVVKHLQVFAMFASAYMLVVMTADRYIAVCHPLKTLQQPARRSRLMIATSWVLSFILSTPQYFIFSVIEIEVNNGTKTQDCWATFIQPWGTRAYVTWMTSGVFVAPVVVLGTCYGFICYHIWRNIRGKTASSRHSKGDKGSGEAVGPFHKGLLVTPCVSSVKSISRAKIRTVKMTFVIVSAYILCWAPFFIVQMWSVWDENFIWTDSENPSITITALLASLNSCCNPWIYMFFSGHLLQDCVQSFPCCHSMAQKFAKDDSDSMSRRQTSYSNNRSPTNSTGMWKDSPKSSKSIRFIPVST
Protocol: After incubation, the mixture is filtered three times using the glass filter (GF/F) so as to separate the membrane preparation combining with vasopressin and then washed with the buffer (5 ml). This glass filter is taken out and mixed with liquid scintillation cocktail. The amount of [^3 H]-vasopressin combining with the membrane is measured by liquid scintillation counter and the rate of the inhibitory effect of the test compound is estimated according to the following equation.
as §1, §2
B1 : The amount of [^3 H]-vasopressin combining with the membrane in the presence of the excess amount of vasopressin (10^-6 M).
as §3

IC50 (V2 Receptor)	IC50 (V1 Receptor)	SMILES
12 nM	62 nM	COc1cc(NC(=O)c2ccccc2C)ccc1C(=O)N1CCCC(CCN2CCN(C)CC2)c2cc(Cl)ccc21 (centres unmarked) [Test Compound 55, 5-[2-(4-Methyl-1-piperazinyl)ethyl]-7-chloro-1-[2-methoxy-4-(2-methylbenzoylamino)benzoyl]-2,3,4,5-tetrahydro-1H-benzazepine dihydrochloride]
7 nM	73 nM	COc1cc(NC(=O)c2ccccc2C)ccc1C(=O)N1CCCC(OCCN2CCN(C(C)=O)CC2)c2cc(Cl)ccc21 (centres unmarked) [Test Compound 40, 5-[2-(4-Acetyl-1-piperazinyl)ethoxy]-7-chloro-1-[2-methoxy-4-(2-methylbenzoylamino)benzoyl]-2,3,4,5-tetrahydro-1H-benzazepine hydrochloride]
3 nM	18 nM	COc1cc(NC(=O)c2ccccc2Br)ccc1C(=O)N1CCCC(CC(=O)N(C)C)c2cc(F)ccc21 (centres unmarked) [Test Compound 51, 5-Dimethylaminocarbonylmethyl-7-fluoro-1-[2-methoxy-4-(2-bromobenzoylamino)benzoyl]-2,3,4,5-tetrahydro-1H-benzazepine]
14 nM	180 nM	Cc1ccccc1C(=O)Nc1ccc(C(=O)N2CCCC(OC(=O)[C@@H](N)C(C)C)c3cc(Cl)ccc32)c(C)c1 (single isomer, unassigned) [Test Compound 15, 5-(L-Valyloxy)-7-chloro-1-[2-methyl-4-(2-methylbenzoylamino)benzoyl]-2,3,4,5-tetrahydro-1H-benzazepine hydrochloride]
12 nM	21 nM	COc1cc(NC(=O)c2ccccc2C)ccc1C(=O)N1CCCC(OC(=O)CN2CCOCC2)c2cc(Cl)ccc21 (centres unmarked) [Test Compound 17, 5-(2-Morpholinoacetyloxy)-7-chloro-1-[2-methoxy-4-(2-methylbenzoylamino)benzoyl]-2,3,4,5-tetrahydro-1H-benzazepine hydrochloride]
10 nM	30 nM	COc1cc(NC(=O)c2ccccc2C)ccc1C(=O)N1CCCC(CC(=O)N2CCN(C)CC2)c2cc(Cl)ccc21 (centres unmarked) [Test Compound 63, 5-[(4-Methyl-1-piperazinyl)carbonylmethyl]-7-chloro-1-[2-methoxy-4-(2-methylbenozylamino)benzoyl]-2,3,4,5-tetrahydro-1H-benzazepine]
9 nM	77 nM	CCOC(=O)CC1CCCN(C(=O)c2ccc(NC(=O)c3ccccc3C)cc2OC)c2ccc(Cl)cc21 (centres unmarked) [Test Compound 26, 5-Ethoxycarbonylmethyl-7-chloro-1-[2-methoxy-4-(2-methylbenzoylamino)benzoyl]-2,3,4,5-tetrahydro-1H-benzazepine]
4 nM	11 nM	COc1cc(C(=O)N2CCCC(CC(=O)N(C)C)c3cc(Cl)ccc32)ccc1NC(=O)c1ccccc1C (centres unmarked) [Test Compound 32, 5-Dimethylaminocarbonylmethyl-7-chloro-1-[3-methoxy-4-(2-methylbenzoylamino)benzoyl]-2,3,4,5-tetrahydro-1H-benzazepine]
6 nM	20 nM	COc1cc(NC(=O)c2ccccc2C)ccc1C(=O)N1CCCC(OC(=O)[C@@H](N)CCSC)c2cc(Cl)ccc21 (single isomer, unassigned) [Test Compound 13, 5-(L-Methionyloxy)-7-chloro-1-[2-methoxy-4-(2-methylbenzoylamino)benzoyl]-2,3,4,5-tetrahydro-1H-benzazepine hydrochloride]
2 nM	84 nM	Cc1ccccc1C(=O)Nc1ccc(C(=O)N2CCCC(=CCCN(C)C)c3cc(F)ccc32)c(Cl)c1 [Test Compound 33, 5-(3-Dimethylaminopropylidene)-7-fluoro-1-[2-chloro-4-(2-methylbenzoylamino)benzoyl]-2,3,4,5-tetrahydro-1H-benzazepine hydrochloride]
14 nM	44 nM	COc1cc(C(=O)N2CCCC(CC#N)c3cc(Cl)ccc32)ccc1NC(=O)c1ccccc1C (centres unmarked) [Test Compound 39, 5-Cyanomethyl-7-chloro-1-[3-methoxy-4-(2-methylbenzoylamino)benzoyl]-2,3,4,5-tetrahydro-1H-benzazepine]
16 nM	95 nM	COc1cc(NC(=O)c2ccccc2C)ccc1C(=O)N1CCCC(CC(=O)N2CCCCC2)c2cc(F)ccc21 (centres unmarked) [Test Compound 58, 5-[(1-piperidinyl)carbonylmethyl]-7-fluoro-1-[2-methoxy-4-(2-methylbenzoylamino)benzoyl]-2,3,4,5-tetrahydro-1H-benzazepine]
4 nM	54 nM	COc1cc(NC(=O)c2ccccc2C)ccc1C(=O)N1CCCC(CCN2CCC(N(C)C)CC2)c2cc(Cl)ccc21 (centres unmarked) [Test Compound 54, 5-[2-(4-Dimethylamino-1-piperidinyl)ethyl]-7-chloro-1-[2-methoxy-4-(2-methylbenzoylamino)benzoyl]-2,3,4,5-tetrahydro-1H-benzazepine dihydrochloride]
11 nM	220 nM	CSCC[C@H](N)C(=O)OC1CCCN(C(=O)c2ccc(NC(=O)c3ccccc3C)cc2C)c2ccc(Cl)cc21 (single isomer, unassigned) [Test Compound 14, 5-(L-Methionyloxy)-7-chloro-1-[2-methyl-4-(2-methylbenzoylamino)benzoyl]-2,3,4,5-tetrahydro-1H-benzazepine hydrochloride]
4 nM	8 nM	COc1cc(NC(=O)c2ccccc2Cl)ccc1C(=O)N1CCCC(CC(=O)N2CCC(N(C)C)CC2)c2cc(Cl)ccc21 (centres unmarked) [Test Compound 45, 5-[(4-Dimethylamino-1-piperidinyl)carbonylmethyl]-7-chloro-1-[2-methoxy-4-(2-chlorobenzoylamino)benzoyl]-2,3,4,5-tetrahydro-1H-benzazepine hydrochloride]
2 nM	30 nM	CCOc1cc(NC(=O)c2ccccc2Cl)ccc1C(=O)N1CCCC(CC(N)=O)c2cc(Cl)ccc21 (centres unmarked) [Test Compound 28, 5-Carbamoylmethyl-7-chloro-1-[2-ethoxy-4-(2-chlorobenzoylamino)benzoyl]-2,3,4,5-tetrahydro-1H-benzazepine]
4 nM	320 nM	Cc1ccccc1CC(=O)Nc1ccc(C(=O)N2CCCC(O)c3cc(Cl)ccc32)c(C)c1 (centres unmarked) [Test Compound 16, 5-Hydroxy-7-chloro-1-{2-methyl-4-[2-(2-methylphenyl)acetylamino]benzoyl}-2,3,4,5-tetrahydro-1H-benzazepine]
12 nM	37 nM	COc1cc(NC(=O)c2ccccc2Cl)ccc1C(=O)N1CCCC(CC(=O)NC2CCN(Cc3ccccc3)CC2)c2cc(Cl)ccc21 (centres unmarked) [Test Compound 48, 5-[(1-Benzyl-4-piperidinyl)aminocarbonylmethyl]-7-chloro-1-[2-methoxy-4-(2-chlorobenzoylamino)benzoyl]-2,3,4,5-tetrahydro-1H-benzazepine hydrochloride]
8 nM	330 nM	COc1cc(NC(=O)c2ccccc2C)ccc1C(=O)N1CCCC(OCCN2CCN(C)CC2)c2cc(F)ccc21 (centres unmarked) [Test Compound 47, 5-[2-(4-Methyl-1-piperazinyl)ethoxy]-7-fluoro-1-[2-methoxy-4-(2-methylbenzoylamino)benzoyl]-2,3,4,5-tetrahydro-1H-benzazepine]
